System: ovarian cancer cell lines
Experiment: doxorubicin-dendrimer-folate uptake in ovarian cancer cells
Assay type: cell-based
Details: FIG. 8; compared with doxorubicin and doxorubicin-(folate)1; folate-quenching correction
Procedure: Ovarian cancer cells were purchased from ATCC (CRL-6322, ATCC American Type Culture Collection, Rockville, Md.) and were grown in Dulbecco's modified Eagle's medium (DMEM) with 10% fetal bovine serum and 100 units/mL penicillin. The cells were grown at 37° C. in 5% CO2 environment. The culture medium was removed and discarded. The cells were rinsed with Dulbecco Phosphate Buffer Solution (DPBS), Trypsin-ethylenediaminetetra-acetic acid (EDTA) solution (0.5 ml) was added, and the cells were observed under an inverted microscope to make sure that they were dispersed. Complete growth medium (6.0 to 8.0 ml) was added, and the cells were aspirated by gently pipetting. The cell suspension in appropriate aliquots was transferred to new culture plates. The cells were allowed to grow at 37° C. in 5% CO2 for 24 hours before further experiments. […]
The evaluation of doxorubicin-dendrimer-folate uptake is conducted by using a literature procedure (Kim D, Lee E S, Oh K T, Gao Z G, Bae Y H. Doxorubicin-loaded polymeric micelle overcomes multidrug resistance of cancer by double-targeting folate receptor and early endosomal pH. Small. 2008 November; 4(11):2043-50) and folate-quenching correction was adjusted based on a literature procedure (Husseini G. A., 2012. Folic Acid Quenches Doxorubicin Fluorescence. Advanced Science Letters. 7:726).

COc1cccc2c1C(=O)c1c(O)c3c(c(O)c1C2=O)C[C@@](O)(/C(CO)=N/NC(=O)CCCC(=O)NCCCOCCOCCOCCCN(CCC(=O)NCCNC(=O)CCC(NC(=O)c1ccc(NCc2cnc4c(=O)[nH]c(N)nc4n2)cc1)C(=O)O)CCC(=O)NCCNC(=O)CCC(NC(=O)c1ccc(NCc2cnc4c(=O)[nH]c(N)nc4n2)cc1)C(=O)O)C[C@H]3O[C@H]1C[C@@H](N)[C@@H](O)[C@@H](C)O1 (stereo partly shown) [doxorubicin-dendrimer-(folate)2, doxorubicin-hydrazine-glutaric acid-PEG3-dendrimer-2-folates]
uptake by ovarian cancer cell lines: superior uptake

From patent US9526795B2, “N-BOC-dendrimers and their conjugates” (Annam Biosciences, LLC, priority 2012, dated 2016)
